According to patent US20040105857A1, “Methods and compositions for enhancing angiogenesis” (priority 2003, published 2004):

Assays:
[1] = system: chick chorioallantoic membrane (CAM); assay: Angiogenesis assay in the chick chorioallantoic membrane (CAM) model, vessel branch point count; type: in vivo; settings: for induction of angiogenic response (vessel branch points): within a defined concentration range
Procedure: FIG. 1 depicts induction of angiogenesis by soluble L1-fusion protein containing the fourth, fifth, and sixth Ig-like domains of L1 (Ig 4-6). a. GST fusion proteins were made covering the entire extra-cellular domain of L1 and consisted of immunoglobulin like domains 1 through 3 (Ig1 3), immunoglobulin like domains 4 through 6 (Ig4-6), and FN type III like domains 1-5 (FN1 5). b. The L1-fusion proteins (Ig 1-3, Ig 4-6 or FN1-5) were tested for their ability to induce an angiogenic response in the chick chorioallantoic membrane (CAM) model. Filter discs each received 0.5 mg of Ig4-6 fusion protein ([…]) or equimolar amounts of the Ig 1-3, or FN1-5 fusion proteins. Negative or positive control groups received filter discs saturated with media alone or with bFGF respectively. Angiogenesis was quantified by counting the number of vessel branch points within the area of membrane immediately beneath the disc. The number of vessel branch points counted in the control group receiving media alone has been subtracted. Treatment groups consisted of a minimum of six embryos and experiments were performed on three separate occasions. c. […] Results obtained using bFGF or media alone are shown for comparison. Note that fine and highly branched angiogenic vessels can be distinguished from large preexisting vessels. Dotted lines delineate the area of the filter disc placed on the membrane. Excised membrane beneath and adjacent to the filter discs were photographed using an Olympus SZH10 Research Stereo microscope at 15×.
FIG. 2 depicts induction of angiogenesis by a L1-RGD peptide and by a function blocking antibody to β1 integrins. a. The L1 peptide PSITWRGDGRDLQEL or the mutant L1 peptide PSITWRADGRDLQEL were tested for their ability to induce an angiogenic response in the chick CAM model. b. Function blocking antibodies to chick avβ3 (LM609) or to chick β1-intgrins (CSAT) were also tested. […] Angiogenesis was quantified by counting the number of vessel branch points within the area of membrane immediately beneath the disc. The number of vessel branch points counted in the control group receiving media alone has been subtracted. c. […]
FIG. 3 depicts induction of angiogenesis by L1 cleavage products. a. […] Untreated and digested L1 (trypsin free) was then analyzed by SDS polyacrylamide gel electrophoresis (5-15% gradient). b. Sites of trypsin cleavage were determined by amino terminal sequencing and are shown schematically. c. […] Angiogenesis was quantified by counting the number of vessel branch points within the area of membrane immediately beneath the disc.
Angiogenesis assay. Angiogenesis was assessed using the chick chorioallantoic membrane (CAM) model which has been extensively described^54. […]

integrin = assay: Integrin-binding activity of mutant L1 peptide (data not shown)
[2] = molecular target: T1, αvβ1 expressed by endothelial cells (Homo sapiens, UniProt P05556+P06756); settings: reference 18; cited from earlier work
T1 construct: αvβ1 expressed by endothelial cells; endogenous in cells
T1 sequence (P06756 31-889 limits assumed): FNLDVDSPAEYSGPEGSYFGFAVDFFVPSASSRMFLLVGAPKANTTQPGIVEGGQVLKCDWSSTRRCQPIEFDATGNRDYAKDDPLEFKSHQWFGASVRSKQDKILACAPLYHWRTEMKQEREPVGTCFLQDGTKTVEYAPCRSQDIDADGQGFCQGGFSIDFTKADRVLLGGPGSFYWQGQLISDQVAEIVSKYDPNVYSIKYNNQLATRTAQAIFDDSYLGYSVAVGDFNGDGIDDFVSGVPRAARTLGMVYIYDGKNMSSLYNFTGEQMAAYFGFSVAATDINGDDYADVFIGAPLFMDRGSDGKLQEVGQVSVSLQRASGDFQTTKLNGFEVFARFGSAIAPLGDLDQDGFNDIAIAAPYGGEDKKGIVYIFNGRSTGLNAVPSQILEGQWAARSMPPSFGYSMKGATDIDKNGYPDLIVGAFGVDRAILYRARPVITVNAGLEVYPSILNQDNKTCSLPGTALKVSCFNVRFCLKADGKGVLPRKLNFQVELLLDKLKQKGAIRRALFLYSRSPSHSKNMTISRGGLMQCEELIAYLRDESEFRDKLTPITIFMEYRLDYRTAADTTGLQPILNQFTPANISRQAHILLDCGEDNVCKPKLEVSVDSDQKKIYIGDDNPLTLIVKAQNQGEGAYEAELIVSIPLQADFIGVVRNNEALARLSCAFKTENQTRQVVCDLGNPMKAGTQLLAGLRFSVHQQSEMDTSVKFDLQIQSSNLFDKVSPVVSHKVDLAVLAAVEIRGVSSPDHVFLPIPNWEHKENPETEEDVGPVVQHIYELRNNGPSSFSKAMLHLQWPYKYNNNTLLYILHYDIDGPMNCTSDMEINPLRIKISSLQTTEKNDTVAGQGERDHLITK
T1 sequence (P06756 891-1048 limits assumed): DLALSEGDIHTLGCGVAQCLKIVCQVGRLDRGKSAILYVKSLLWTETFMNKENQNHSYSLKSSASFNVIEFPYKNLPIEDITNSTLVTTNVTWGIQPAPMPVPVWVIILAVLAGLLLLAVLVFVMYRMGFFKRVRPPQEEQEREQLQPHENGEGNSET
T1 sequence (P05556 21-798): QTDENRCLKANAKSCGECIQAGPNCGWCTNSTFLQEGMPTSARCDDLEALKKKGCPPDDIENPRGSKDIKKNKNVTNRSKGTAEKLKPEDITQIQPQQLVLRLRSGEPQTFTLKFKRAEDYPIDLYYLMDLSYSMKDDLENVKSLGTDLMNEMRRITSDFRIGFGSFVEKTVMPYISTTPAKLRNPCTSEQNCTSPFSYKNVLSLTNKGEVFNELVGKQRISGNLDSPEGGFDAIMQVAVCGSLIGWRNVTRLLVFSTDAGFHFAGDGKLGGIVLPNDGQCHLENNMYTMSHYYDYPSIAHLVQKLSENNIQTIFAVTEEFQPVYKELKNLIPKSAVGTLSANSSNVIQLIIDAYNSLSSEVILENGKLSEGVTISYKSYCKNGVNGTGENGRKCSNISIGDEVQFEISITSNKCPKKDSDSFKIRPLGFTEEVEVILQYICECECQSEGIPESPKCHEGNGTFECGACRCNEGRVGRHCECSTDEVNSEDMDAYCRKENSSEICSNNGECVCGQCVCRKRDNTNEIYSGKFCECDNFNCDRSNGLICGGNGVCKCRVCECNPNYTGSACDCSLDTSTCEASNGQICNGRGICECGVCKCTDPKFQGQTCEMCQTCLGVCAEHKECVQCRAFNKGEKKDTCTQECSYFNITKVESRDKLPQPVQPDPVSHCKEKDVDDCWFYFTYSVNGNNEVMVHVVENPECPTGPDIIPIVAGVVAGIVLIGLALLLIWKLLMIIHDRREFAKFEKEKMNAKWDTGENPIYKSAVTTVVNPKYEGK

[3] = system: HDMEC or ECV304 avb3(−) cell adhesion to fibronectin; assay: Cell adhesion to fibronectin (data not shown); type: cell-based; design: effect on cell adhesion to fibronectin: dose or concentration left out as unconfirmed
Procedure: The extent to which the L1 polypeptide or L1-RGD peptide alters adhesivity between endothelial cells, or endothelial cells and the subendothelial matrix remains to be determined. However, at a high molarity (250 uM) the L1-RGD peptide abrogated 30-40% of HDMEC or ECV304 avb3(−) cell adhesion to fibronectin (data not shown). […] This would certainly be consistent with the fact that both αvβ3 and αvβ1 can promote cell adhesion or spreading on fibronectin^37-38.

| Sequence | angiogenic activity compared with an equivalent concentration of the wildtype peptide ([1]; L1 peptides, 0.01-5 mg/disc) | induction of angiogenic response (vessel branch points) ([1]; L1 peptides, 0.01-5 mg/disc) | integrin-binding activity (integrin) | recognition by αvβ1 [2] | cell adhesion to fibronectin abrogated ([3]; 250 uM peptide, HDMEC or ECV304 avb3(−) cells) | effect on cell adhesion to fibronectin ([3]; lower proangiogenic concentrations) | angiogenic response at high concentration ([1]; high concentration of peptide or antibody) |
| --- | --- | --- | --- | --- | --- | --- | --- |
| PSITWRADGRDLQEL [15-mer L1 peptide containing the mutation RGD to RAD; control peptide] | significantly less proangiogenic | some angiogenic activity | retained some integrin-binding activity |  |  |  |  |
| PSITWRGDGRDLQEL [L1-RGD peptide] |  | proangiogenic |  | recognized by αvβ1 | 30-40% | did not overtly prevent adhesion | not effective |
